Results: ChEMBL document CHEMBL3797079, “Synergistic reduction of HIV-1 infectivity by 5-azacytidine and inhibitors of ribonucleotide reductase” (Bioorg Med Chem, 2016)
Activity calls are given as the source filed them. The calls are words filed in the database; no cut-off is given here.

Columns and labels:
U373-MAGI [1] = experiment: Reduction in dGTP level in human U373-MAGI cells at 50 uM after 6 hrs by LC-MS/MS analysis; type: functional, cell-based
[2] = test system: Human immunodeficiency virus 1; experiment: (§1) Potentiation of 5-Aza-dC-induced antiviral activity against VSV-G pseudotyped HIV-1 NL4-3 infected in human U373-MAGI cells assessed as increase in frequency of C to G transversion at 50 uM incubated for 4 hrs preinfection followed by 5-Aza-C addition for 2 hrs preinfection and subsequent viral infection measured at 72 hrs post infection by illumina sequencing method relative to control; type: functional, organism-based
[3] = test system: Human immunodeficiency virus 1; experiment: as §1, with “Nef mutation” for “increase in frequency of C to G transversion”, “(reference value: 22.6%)” for “relative to control”; type: functional
U373-MAGI [4] = experiment: Reduction in dATP level in human U373-MAGI cells at 200 uM after 6 hrs by LC-MS/MS analysis; type: functional, cell-based
[5] = test system: Human immunodeficiency virus 1; experiment: Antiviral activity against VSV-G pseudotyped HIV-1 NL4-3 infected in human U373-MAGI cells assessed as increase in frequency of C to A transversion at 50 uM incubated for 4 hrs prior to infection measured at 72 hrs post infection by illumina sequencing method relative to control; type: functional
[6] = test system: Human immunodeficiency virus 1; experiment: Potentiation of 5-Aza-dC-induced antiviral activity against VSV-G pseudotyped HIV-1 NL4-3 infected in human U373-MAGI cells assessed as increase in frequency of G to C transversion at 50 uM incubated for 4 hrs preinfection followed by 5-Aza-C addition for 2 hrs preinfection and subsequent viral infection measured at 72 hrs post infection by illumina sequencing method relative to control; type: functional, organism-based
[7] = test system: Human immunodeficiency virus 1; experiment: Antiviral activity against VSV-G pseudotyped HIV-1 NL4-3 infected in human U373-MAGI cells assessed as reduction in U5-gag level at 50 uM measured at 12 to 72 hrs post infection by qPCR method; type: functional, organism-based
[8] = test system: Human immunodeficiency virus 1; experiment: Antiviral activity against VSV-G pseudotyped HIV-1 NL4-3 infected in human U373-MAGI cells assessed as increase in frequency of T to A transversion at 50 uM incubated for 4 hrs prior to infection measured at 72 hrs post infection by illumina sequencing method relative to control; type: functional
[9] = test system: Human immunodeficiency virus 1; experiment: Antiviral activity against VSV-G pseudotyped HIV-1 NL4-3 infected in human U373-MAGI cells assessed as increase in frequency of T to G transversion at 50 uM incubated for 4 hrs prior to infection measured at 72 hrs post infection by illumina sequencing method relative to control; type: functional
[10] = test system: Human immunodeficiency virus 1; experiment: as §1, with “Vif mutation” for “increase in frequency of C to G transversion”, “(reference value: 19.2%)” for “relative to control”; type: functional
U373-MAGI [11] = experiment: Effect on 5-aza-dCTP level in human U373-MAGI cells at 50 uM preincubated for 2 hrs followed by 5-aza-dC addition measured after 4 hrs by LC-MS/MS analysis; type: functional, cell-based
U373-MAGI [12] = experiment: Effect on dRGU-TP level in human U373-MAGI cells at 200 uM preincubated for 2 hrs followed by 5-aza-dC addition measured after 4 hrs by LC-MS/MS analysis; type: functional, cell-based
[13] = test system: Human immunodeficiency virus 1; experiment: Antiviral activity against VSV-G pseudotyped HIV-1 NL4-3 infected in human U373-MAGI cells assessed as Nef mutation at 50 uM incubated for 4 hrs prior to infection measured at 72 hrs post infection by illumina sequencing method (reference value: 22.6%); type: functional
[14] = test system: Human immunodeficiency virus 1; experiment: Antiviral activity against VSV-G pseudotyped HIV-1 NL4-3 infected in human U373-MAGI cells assessed as increase in mutation frequency at 50 uM incubated for 4 hrs prior to infection measured at 72 hrs post infection by illumina sequencing method; type: functional
[15] = Reduction in dATP level in human U373-MAGI cells at 50 uM after 6 hrs by LC-MS/MS analysis; type: functional; set-up: scale not given: the % may be the effect or the level left
[16] = test system: Human immunodeficiency virus 1; experiment: Antiviral activity against VSV-G pseudotyped HIV-1 NL4-3 infected in human U373-MAGI cells assessed as reduction in U5-gag level at 50 uM measured at 6 hrs post infection by qPCR method; type: functional, organism-based
U373-MAGI [17] = experiment: Reduction in dCTP level in human U373-MAGI cells at 50 uM preincubated for 2 hrs followed by 5-aza-dC addition measured after 4 hrs by LC-MS/MS analysis relative to 5-aza-dC; type: functional, cell-based
U373-MAGI [18] = experiment: Reduction in 5-aza-dCTP level in human U373-MAGI cells at 50 uM preincubated for 2 hrs followed by 5-aza-C addition measured after 4 hrs by LC-MS/MS analysis; type: functional, cell-based
[19] = test system: Human immunodeficiency virus 1; experiment: Antiviral activity against VSV-G pseudotyped HIV-1 NL4-3 infected in human U373-MAGI cells assessed as increase in frequency of A to T transversion at 50 uM incubated for 4 hrs prior to infection measured at 72 hrs post infection by illumina sequencing method relative to control; type: functional
[20] = test system: Human immunodeficiency virus 1; experiment: Antiviral activity against VSV-G pseudotyped HIV-1 NL4-3 infected in human U373-MAGI cells assessed as reduction in gag level at 50 uM measured at 6 hrs post infection by qPCR method; type: functional, organism-based
U373-MAGI [21] = experiment: Reduction in dRGU-TP level in human U373-MAGI cells at 50 uM preincubated for 2 hrs followed by 5-aza-C addition measured after 4 hrs by LC-MS/MS analysis; type: functional, cell-based
[22] = test system: Human immunodeficiency virus 1; experiment: as §1, with “5-Aza-C-induced” for “5-Aza-dC-induced”, “Nef mutation” for “increase in frequency of C to G transversion”, “(reference value: 22.6%)” for “relative to control”; type: functional
[23] = test system: Human immunodeficiency virus 1; experiment: Potentiation of 5-Aza-dC-induced antiviral activity against VSV-G pseudotyped HIV-1 NL4-3 infected in human U373-MAGI cells assessed as reduction in gag level at 50 uM after 2 to 72 hrs by qPCR method; type: functional, organism-based
[24] = test system: Human immunodeficiency virus 1; experiment: Potentiation of 5-Aza-C-induced antiviral activity against VSV-G pseudotyped HIV-1 NL4-3 infected in human U373-MAGI cells assessed as reduction in U5-gag level at 50 uM after 2 to 72 hrs by qPCR method; type: functional, organism-based
[25] = test system: Human immunodeficiency virus 1; experiment: Potentiation of 5-Aza-dC-induced antiviral activity against VSV-G pseudotyped HIV-1 NL4-3 infected in human U373-MAGI cells assessed as reduction in U5-gag level at 50 uM after 2 to 72 hrs by qPCR method; type: functional, organism-based
U373-MAGI [26] = experiment: Increase in 5-aza-dCTP/dCTP ratio in human U373-MAGI cells at 200 uM preincubated for 2 hrs followed by 5-aza-C addition measured after 4 hrs by LC-MS/MS analysis relative to 5-aza-C; type: functional, cell-based
[27] = test system: Human immunodeficiency virus 1; experiment: Potentiation of 5-Aza-C-induced antiviral activity against VSV-G pseudotyped HIV-1 NL4-3 infected in human U373-MAGI cells assessed as reduction in viral infectivity at 25 to 100 uM preincubated for 2 hrs followed by 5-Aza-C addition for 2 hrs and subsequent viral infection measured at 72 hrs post infection by flow cytometric analysis; type: functional, organism-based
[28] = test system: Human immunodeficiency virus 1; experiment: Antiviral activity against VSV-G pseudotyped HIV-1 NL4-3 infected in human U373-MAGI cells assessed as reduction in gag level at 50 uM measured at 12 to 72 hrs post infection by qPCR method; type: functional, organism-based
[29] = test system: Human immunodeficiency virus 1; experiment: as §1, with “Gag mutation” for “increase in frequency of C to G transversion”, “(reference value: 18.4%)” for “relative to control”; type: functional

Structure (SMILES): Oc1ccc(/C=C/c2cc(O)cc(O)c2)cc1 [RESVERATROL]
- Activity (U373-MAGI [1]): inactive
- Activity [2]: inactive
- Activity [3]: 20.3%
- Activity (U373-MAGI [4]): Active
- fold change (FC) [5]: 1.3
- Activity [6]: inactive
- Activity [7]: inactive
- fold change (FC) [8]: 1.8
- fold change (FC) [9]: 3.2
- Activity [10]: 25.1%
- Activity (U373-MAGI [11]): inactive
- Activity (U373-MAGI [12]): inactive
- Activity [13]: 18.5%
- fold change (FC) [14]: 1.5
- Activity [15]: 30%
- Activity [16]: Active
- Activity (U373-MAGI [17]): Active
- Activity (U373-MAGI [18]): inactive
- fold change (FC) [19]: 1.8
- Activity [20]: Active
- Activity (U373-MAGI [21]): inactive
- Activity [22]: 17.1%
- Activity [23]: Active
- Activity [24]: Active
- Activity [25]: Active
- Activity (U373-MAGI [26]): inactive
- Activity [27]: Active
- Activity [28]: inactive
- Activity [29]: 15.7%
